Article PMC9375364, “Fabrication of multifunctional metal–organic frameworks nanoparticles via layer-by-layer self-assembly to efficiently discover PSD95-nNOS uncouplers for stroke treatment” (Journal of Nanobiotechnology, 2022)
Where two headings read alike, the source gives them in different places.

Biological target: T1, PSD95-nNOS (GFP-PSD95 coupled to His-nNOS on magnetic Fe-MOF) (Rattus norvegicus (nNOS); Homo sapiens (PSD95), UniProt P29476+P78352)
T1 construct: gene Nos1; two-species complex; myc-His-nNOS (pcDNA3.1) and GFP-PSD95-Flag (pcDNA3.1), total synthesized genes, expressed in HEK293T, from RIPA lysates; His-nNOS immobilized on magnetic Fe-MOF, then GFP-PSD95 coupled
T1 sequence (P29476 whole entry): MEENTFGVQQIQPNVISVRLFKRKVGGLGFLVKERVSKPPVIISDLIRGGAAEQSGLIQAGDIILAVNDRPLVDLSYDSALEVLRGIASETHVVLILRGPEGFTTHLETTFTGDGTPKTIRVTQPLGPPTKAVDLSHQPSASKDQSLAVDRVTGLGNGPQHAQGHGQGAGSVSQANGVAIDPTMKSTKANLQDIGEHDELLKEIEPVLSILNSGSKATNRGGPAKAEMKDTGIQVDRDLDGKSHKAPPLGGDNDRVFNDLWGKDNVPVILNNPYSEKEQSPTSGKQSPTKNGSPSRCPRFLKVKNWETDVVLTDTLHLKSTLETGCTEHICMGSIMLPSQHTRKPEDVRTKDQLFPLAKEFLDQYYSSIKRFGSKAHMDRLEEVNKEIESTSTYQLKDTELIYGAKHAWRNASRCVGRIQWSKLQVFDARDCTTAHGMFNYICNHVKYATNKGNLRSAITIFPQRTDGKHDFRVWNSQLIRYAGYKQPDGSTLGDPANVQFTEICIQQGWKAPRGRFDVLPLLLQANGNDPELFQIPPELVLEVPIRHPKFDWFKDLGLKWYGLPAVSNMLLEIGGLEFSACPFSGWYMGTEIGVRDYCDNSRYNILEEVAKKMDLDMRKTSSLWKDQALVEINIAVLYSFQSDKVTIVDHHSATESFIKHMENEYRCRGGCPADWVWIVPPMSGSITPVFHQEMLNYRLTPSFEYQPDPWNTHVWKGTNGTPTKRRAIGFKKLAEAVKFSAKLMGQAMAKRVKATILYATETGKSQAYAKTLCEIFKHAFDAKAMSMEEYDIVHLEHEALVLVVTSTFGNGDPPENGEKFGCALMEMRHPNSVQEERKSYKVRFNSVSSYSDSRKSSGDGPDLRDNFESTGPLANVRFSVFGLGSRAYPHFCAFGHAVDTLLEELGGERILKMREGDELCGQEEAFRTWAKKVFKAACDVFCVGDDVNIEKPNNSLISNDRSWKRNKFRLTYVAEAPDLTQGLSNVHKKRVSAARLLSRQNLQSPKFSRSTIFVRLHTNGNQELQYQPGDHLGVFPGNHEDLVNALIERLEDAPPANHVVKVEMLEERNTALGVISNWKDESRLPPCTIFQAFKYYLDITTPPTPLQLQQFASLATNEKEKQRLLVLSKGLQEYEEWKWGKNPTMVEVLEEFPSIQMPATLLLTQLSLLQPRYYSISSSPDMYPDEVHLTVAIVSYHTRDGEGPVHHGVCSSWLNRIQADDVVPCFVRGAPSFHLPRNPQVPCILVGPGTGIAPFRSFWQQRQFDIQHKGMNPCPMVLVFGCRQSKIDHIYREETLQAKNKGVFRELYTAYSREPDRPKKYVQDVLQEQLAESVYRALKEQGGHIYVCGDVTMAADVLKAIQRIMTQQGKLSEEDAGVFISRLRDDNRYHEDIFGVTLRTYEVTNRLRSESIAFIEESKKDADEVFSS
T1 sequence (P78352 whole entry): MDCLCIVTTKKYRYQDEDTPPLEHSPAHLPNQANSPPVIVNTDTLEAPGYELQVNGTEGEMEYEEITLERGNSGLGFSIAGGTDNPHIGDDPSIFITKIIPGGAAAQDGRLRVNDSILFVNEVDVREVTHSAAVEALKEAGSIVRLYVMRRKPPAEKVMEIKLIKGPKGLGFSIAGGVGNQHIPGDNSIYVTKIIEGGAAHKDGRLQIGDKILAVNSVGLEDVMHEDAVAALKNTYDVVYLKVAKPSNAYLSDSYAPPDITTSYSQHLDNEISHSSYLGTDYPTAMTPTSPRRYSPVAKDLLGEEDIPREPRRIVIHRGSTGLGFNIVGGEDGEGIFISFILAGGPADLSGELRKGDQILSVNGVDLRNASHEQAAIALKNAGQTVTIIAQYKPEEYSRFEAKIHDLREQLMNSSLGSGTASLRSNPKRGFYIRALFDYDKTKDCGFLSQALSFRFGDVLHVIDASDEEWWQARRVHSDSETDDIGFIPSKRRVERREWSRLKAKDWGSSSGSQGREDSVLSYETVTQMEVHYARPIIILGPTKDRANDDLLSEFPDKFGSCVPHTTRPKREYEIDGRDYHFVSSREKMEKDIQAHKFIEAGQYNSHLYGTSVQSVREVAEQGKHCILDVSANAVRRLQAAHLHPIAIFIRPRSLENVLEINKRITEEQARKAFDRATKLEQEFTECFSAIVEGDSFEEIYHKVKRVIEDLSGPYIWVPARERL
Assay: uncoupling of GFP-PSD95 from His-nNOS/Fe-MOF, magnetic separation, fluorescence
Type: binding
From the text: uncoupling of GFP-PSD95 from His-nNOS/Fe-MOF, magnetic separation, fluorescence on PSD95-nNOS (GFP-PSD95 coupled to His-nNOS on magnetic Fe-MOF)

| SMILES | IC50 [µM] | IC50 (PBS pH 7.4, 0.1% DMSO, 4 °C, 5 h, immobilized nNOS, inhibition of PSD95-nNOS coupling, binding chain not told) [µM] |
| --- | --- | --- |
| O=C(O)c1ccc(NCc2cc(Cl)cc(Cl)c2O)cc1O [ZL006, 4-(3,5-Dichloro-2-hydroxy-benzylamino)-2-hydroxybenzoic acid, reference compound] | 1800 ± 151 | – |
| O=C(O)[C@H]1O[C@@H](Oc2cc3oc(-c4ccccc4)cc(=O)c3c(O)c2O)[C@H](O)[C@@H](O)[C@@H]1O [compound 1, Baicalin] | 104 ± 1 | – |
| O=c1cc(-c2ccccc2)oc2cc(O)c(O)c(O)c12 [compound 2, Baicalein] | 144 ± 22 | – |
| Oc1cc(O)cc(/C=C/c2c(O)cccc2O)c1 [compound 3, Gnetol] | – | 492 ± 63 |
| COc1cc(/C=C/c2cc(O)cc(O)c2)ccc1O [compound 6, Isorhapontigenin] | > 1800 | – |
| COc1cc2c[n+](C)c3c4cc5c(cc4ccc3c2cc1OC)OCO5 [compound 7, Nitidine chloride] | > 1800 | – |
| COc1ccc2c(c[n+](C)c3c4cc5c(cc4ccc23)OCO5)c1OC [compound 8, Chelerythrine] | > 1800 | – |
| COc1cc(O)c2c(c1)C(=O)c1cc(C)cc(O)c1C2=O [compound 9, Physcion] | > 1800 | – |
